# Assay results reported in patent US20170173114A1, “METHODS AND COMPOSITIONS FOR INDUCTION OF UCP1 EXPRESSION” (Joslin Diabetes Center, Inc., priority 2014, published 2017).
# How the values were obtained:
# Type in all cases: cell-based, murine
# WT-1 brown preadipocytes [1] = assay: Seahorse Bioanalyzer cellular respiration in WT-1 brown preadipocytes; settings: growth media, two days
# Source text: The Seahorse XF24 (Seahorse Bioscience, http://www.seahorsebio.com/) was utilized for respirometry to measure oxygen consumption rates (OCR; indicating oxidative phosphorylation) and extracellular acidification rates (ECAR; indicating extracellular pH) in mature brown adipocytes. The cell plates and assay cartridges for the Seahorse XF24 have four ports allowing for drug delivery to individual wells during measurement of the metabolic parameters. For a typical bioenergetic profile, cells are first treated with oligomycin to block ATP synthase, FCCP as an uncoupler and Rotenone to block Complex 1 of the ETC (all from Sigma). Example 2 provides additional details regarding the general method. […]
# A profile of cellular respiration was developed by utilizing well-characterized mitochondrial toxins, as described in FIG. 5B. First, basal respiration was measured, followed by injection of oligomycin (an inhibitor of ATP synthase which allows measurement of ATP turnover). Then, the uncoupler FCCP (carbonilcyanide p-triflouromethoxyphenylhydrazone) was injected to measure respiratory capacity, followed by the complex 1 inhibitor rotenone (which prevents electron transfer activity and leaves only non-mitochondrial activity to be measured). […]
# (§1) The role of PGs in regulating mitochondrial function and cellular glucose uptake was also assessed. […]
# WT-1 brown preadipocytes [2] = assay: 2-deoxy-[3H]glucose uptake in WT-1 brown preadipocytes; settings: growth media, two days
# Procedure: The following glucose uptake assay was used to determine whether FGF6 could impact cellular glucose uptake. Specifically, glucose uptake was monitored in WT-1 brown preadipocytes and 3T3-F442A white preadipocytes in the presence or absence of FGF6. After serum starvation in DMEM/H medium containing 1% of BSA for 2-3 h, cells were washed with HEPES buffer and then incubated with or without 100 nM insulin for 30 min in DMEM/H medium containing 1% of BSA. Glucose transport was determined by the addition of 2-deoxy-[3H]glucose (0.1 mM, 0.5 μCi/mL; PerkinElmer Life and Analytical Science, Waltham, Mass.). After 5 minutes of incubation, the reaction was stopped by ice-cold PBS and cells were washed twice with ice-cold PBS. Cells were then lysed in 0.1% SDS, and glucose uptake was assessed in 4 mL of scintillant using Beckman LS6500 scintillation counter (Beckman Coulter, Indianapolis Ind.). Nonspecific 2-deoxy-[3H]glucose uptake was measured in the presence of cytochalasin B (20 μM) and was subtracted from the total uptake to get specific glucose uptake. Results were expressed as the mean±s.e.m. of the indicated number of experiments. The protein content was determined by the Bradford method.
# as §1
# LDHA, PDK1, PKM2 = assay: LDHA, PDK1 and PKM2 mRNA expression in WT-1 cells; settings: WT-1, 24 hours; vs vehicle
# Procedure: To test the role of specific prostaglandins (PGs) in activating UCP1 expression, WT-1 brown adipocytes were pretreated with PGE2, PGI2 and FGF6 for 24 hours. mRNA expression levels of UCP1, PTGS2, LDHA, PDK1 and PKM2 were then measured.
Structure (SMILES),oxygen consumption in WT-1 brown preadipocytes (WT-1 brown preadipocytes [1]),glucose uptake in WT-1 brown preadipocytes (WT-1 brown preadipocytes [2]),"LDHA mRNA expression (LDHA, PDK1, PKM2)","PDK1 mRNA expression (LDHA, PDK1, PKM2)","PKM2 mRNA expression (LDHA, PDK1, PKM2)"
"CCCCC[C@H](O)/C=C/[C@H]1[C@H](O)CC(=O)[C@@H]1C/C=C\CCCC(=O)O [PGE2, reference compound]",enhanced,enhanced,increase,increase,increase
"CCCCC[C@H](O)/C=C/[C@@H]1[C@H]2C/C(=C/CCCC(=O)O)O[C@H]2C[C@H]1O [PGI2, reference compound]",enhanced,enhanced,increase,increase,increase
